Laboratory results published in ChEMBL document CHEMBL5154820 (Eur J Med Chem, 2022).
In brackets after ≈: the same amount, converted by molar mass.

Experiments:
[1] = Octanol-water partition coefficient, logP of the compound incubated overnight by HPLC analysis; assay type: physicochemical
[2] = tested on: HeLa; assay: Induction of cell cycle arrest in human HeLa cells assessed as accumulation of cells at G2/M phase at 0.2 uM after 24 hrs by propidium iodide staining based flow cytometric analysis (reference value: 20.3%); assay type: functional
[3] = tested on: SiHa; assay: Potency index, ratio of cisplatin IC50 to test compound IC50 for cytotoxicity against human DDP resistant SiHa cells; assay type: functional
[4] = tested on: HeLa; assay: Induction of apoptosis in human HeLa cells assessed as early apoptotic cells at 0.2 uM measured after 24 hrs by Annexin V-FITC/7-AAD staining based flow cytometric analysis (reference value: 20.8%); assay type: functional
[5] = tested on: HeLa; assay: Induction of cell cycle arrest in human HeLa cells assessed as 2N cells at 0.1 uM measured after 24 hrs by propidium iodide staining based flow cytometric analysis analysis ( Rvb = 47.4%); assay type: functional
[6] = tested on: HeLa; assay: Induction of cell cycle arrest in human HeLa cells assessed as S-phase at 0.4 uM measured after 24 hrs by propidium iodide staining based flow cytometric analysis analysis ( Rvb = 15.5%); assay type: functional
[7] = tested on: HeLa; assay: Induction of cell cycle arrest in human HeLa cells assessed as >4N cells at 0.4 uM measured after 24 hrs by propidium iodide staining based flow cytometric analysis analysis ( Rvb = 8.84%); assay type: functional
[8] = Nephrotoxicity in BABL/c mouse assessed as increased creatinine level at 30 mg/kg, ip administered daily for 21 days relative to vehicle; assay type: toxicity, organism-based; details: in vivo, 504 h, time 21 day
[9] = Antiproliferation activity against human MS751 cells assessed as reduction in cell growth measured after 48 to 72 hrs by CCK-8 assay; assay type: functional, cell-based
[10] = Resistant factor, ratio of IC50 for antiproliferative activity against human HeLa/DDP cells to IC50 for human HeLa cells; assay type: functional
[11] = tested on: HeLa; assay: Antitumor activity against human HeLa cells xenografted in BABL/c mouse assessed assessed as reduction in tumor volume at 30 mg/kg, ip administered daily for 21 days followed by addition of 3 mg/kg DDP for every 2 days and measured every 3 days ( Rvb = 2336 mm3); assay type: functional; details: time 21 day
[12] = MRT in C57 nude mouse at 30 mg/kg, ip measured at 0.083 to 24 hrs by LC/MS/MS analysis; assay type: ADME, organism-based; details: in vivo, time 0.083-24 hrs
[13] = tested on: HeLa; assay: Induction of apoptosis in human HeLa cells assessed as necrotic cells at 0.2 uM measured after 24 hrs by Annexin V-FITC/7-AAD staining based flow cytometric analysis (reference value: 0.56%); assay type: functional
[14] = tested on: HeLa; assay: Antiproliferation activity against human HeLa cells assessed as reduction in cell growth measured after 48 to 72 hrs by CCK-8 assay; assay type: functional, cell-based
[15] = Nephrotoxicity in BABL/c mouse assessed as increased urea nitrogen level at 30 mg/kg, ip administered daily for 21 days relative to vehicle; assay type: toxicity, organism-based; details: in vivo, 504 h, time 21 day
[16] = target: Tubulin beta (Homo sapiens) (UniProt P68371+Q9H4B7+Q13509+P04350+Q3ZCM7+P07437+Q13885+Q9BVA1+Q9BUF5+A6NNZ2); assay: Binding affinity to beta-tubulin colchicine binding site in human HeLa cells assessed as decrease of adduct formation by measuring gray value measured at 1 uM incubated for 2 hrs followed by addition of EBI measured after 1.5 hrs by EBI competition based Western blotting analysis; assay type: cell-based; details: time 3.5 hrs
[17] = Aqueous solubility of compound at pH 7.4 in phosphate buffer incubated overnight by HPLC analysis; assay type: physicochemical
[18] = tested on: SiHa; assay: Antiproliferative activity against human SiHa cells assessed as reduction in cell growth measured after 48 to 72 hrs by CCK-8 assay; assay type: functional, cell-based
[19] = tested on: HeLa; assay: Antitumor activity against human HeLa cells xenografted in BABL/ mouse assessed as tumor growth inhibition at 60 mg/kg, ip administered daily for 21 days relative to control; assay type: functional; details: 504 h, time 21 day, read-out: TGI
[20] = tested on: HeLa; assay: Antitumor activity against human HeLa cells xenografted in BABL/c mouse assessed assessed as reduction in tumor volume at 60 mg/kg, ip administered daily for 21 days and measured every 3 day ( Rvb = 2336 mm3); assay type: functional; details: time 21 day
[21] = Aqueous solubility of compound at pH 7.0 phosphate buffer incubated overnight by HPLC analysis analysis; assay type: physicochemical
[22] = Acute toxicity against ICR mouse assessed as morphological changes in spleen at 1000 mg/kg, ip measured after 14 days by H and E staining method; assay type: organism-based; details: in vivo, 336 h, time 14 day
[23] = Tmax in C57 nude mouse at 30 mg/kg, ip measured at 0.083 to 24 hrs by LC/MS/MS analysis; assay type: ADME, organism-based; details: in vivo, time 0.083-24 hrs
[24] = Antiproliferative activity against human HeLa/DDP cells assessed as reduction in cell growth measured after 48 to 72 hrs by CCK-8 assay; assay type: functional, cell-based
[25] = tested on: HeLa; assay: Antiproliferative activity against human HeLa cells assessed as reduction in cell growth measured after 48 to 72 hrs by CCK-8 assay; assay type: functional, cell-based
[26] = Antiproliferative activity against human SiHa/DDP cells assessed as reduction in cell growth measured after 48 to 72 hrs by CCK-8 assay; assay type: functional, cell-based, SiHa/cDDP
[27] = Nephrotoxicity in BABL/c mouse assessed as increased urea nitrogen level at 60 mg/kg, ip administered daily for 21 days relative to vehicle; assay type: toxicity, organism-based; details: in vivo, 504 h, time 21 day
[28] = Aqueous solubility of compound at pH 2.0 in phosphate buffer incubated overnight by HPLC analysis; assay type: physicochemical
[29] = Acute toxicity against ICR mouse assessed as inflammatory cell infiltration in kidney at 1000 mg/kg, ip measured after 14 days by H and E staining method; assay type: organism-based; details: in vivo, 336 h, time 14 day
[30] = Toxicity against BABL/c mouse assessed as morphological changes in spleen at 30 to 60 mg/kg, ip administered daily for 21 days by H and E staining method; assay type: organism-based; details: in vivo, 504 h, dose 30-60 mg/kg, time 21 day
[31] = Toxicity against BABL/c mouse assessed as morphological changes in lung at 30 mg/kg, ip administered daily for 21 days followed by addition of 3 mg/kg DDP for every 2 days by H and E staining method; assay type: organism-based; details: in vivo, 504 h, time 21 day
[32] = Toxicity against BABL/c mouse assessed as morphological changes in spleen at 30 mg/kg, ip administered daily for 21 days followed by addition of 3 mg/kg DDP for every 2 days by H and E staining method; assay type: organism-based; details: in vivo, 504 h, time 21 day
[33] = tested on: SiHa; assay: Antiproliferation activity against human SiHa cells assessed as reduction in cell growth measured after 48 to 72 hrs by CCK-8 assay; assay type: functional, cell-based
[34] = Cytotoxicity against HK-2 cells assessed as reduction in cell growth measured after 24 hrs by microplate reader analysis; assay type: toxicity, cell-based; details: human
[35] = tested on: HeLa; assay: Induction of cell cycle arrest in human HeLa cells assessed as >4N cells at 6 nM measured after 24 hrs by propidium iodide staining based flow cytometric analysis analysis relative to control; assay type: functional
[36] = tested on: HUVEC; assay: Vascular disruptive activity against HUVEC-formed vascular tube assessed as damage of vascular tube on matrigel substratum at 0.2 uM measured after 2 hrs; assay type: functional, Homo sapiens
[37] = tested on: HeLa; assay: Induction of apoptosis in human HeLa cells assessed as viable cells at 3 nM measured after 24 hrs by Annexin V-FITC/7-AAD staining based flow cytometric analysis (reference value: 75.5%); assay type: functional; details: read-out: Activity

**Q.** Which results are given for `CCOc1ccc(-c2cncnc2-c2cc(OC)c(OC)c(OC)c2)cc1Cl`?
**A.** logP [1]: 2.36; Activity [2]: 47.6%; Ratio IC50 [3]: 2.7; Activity [4]: 66.4%; Activity [5]: 22.7%; Activity [6]: 11.4%; Activity [7]: 1.58%; Activity [8]: 31%; IC50 [9]: 110 nM; Ratio IC50 [10]: 79.2; Activity [11]: 724 mm3; MRT [12]: 1.77 h; Activity [13]: 0.52%; IC50 [14]: 90 nM; Activity [15]: 1.3%; Activity [16]: 0.53; solubility [17]: 17.1 µg/mL (≈ 42.8 µM); IC50 [18]: 150 nM; inhibition in vivo at 60 mg/kg [19]: 58%; Activity [20]: 1083 mm3; solubility [21]: 8.12 µg/mL (≈ 20.3 µM); Activity [22]: Non-Toxic; Tmax [23]: 0.25 h; IC50 [24]: 7210 nM; IC50 [25]: 90 nM; IC50 [26]: 6280 nM; Activity [27]: 1.3%; solubility [28]: 31.7 µg/mL (≈ 79 µM); Activity [29]: Non-Toxic; Activity [30]: Non-Toxic; Activity [31]: Non-Toxic; Activity [32]: Non-Toxic; IC50 [33]: 150 nM; IC50 at 24 h [34]: 188000 nM

**Q.** For `COc1ccc(/C=C\c2cc(OC)c(OC)c(OC)c2)cc1O` [COMBRETASTATIN A4], which logP [1] is on record?
**A.** The logP was 2.04.

**Q.** What about the Activity [35] of the same compound?
**A.** Its Activity is 6.35%.

**Q.** And the IC50 [9]?
**A.** Its IC50 is 8 nM.

**Q.** What about the IC50 [14] of the same compound?
**A.** Its IC50 is 4.2 nM.

**Q.** What about the Activity [36] of the same compound?
**A.** Its Activity is 100%.

**Q.** And the solubility [17]?
**A.** Its solubility is 4.34 µg/mL (≈ 13.7 µM).

**Q.** And the IC50 [18]?
**A.** Its IC50 is 29 nM.

**Q.** And the solubility [21]?
**A.** The solubility was 9.85 µg/mL (≈ 31.1 µM).

**Q.** And the IC50 [24]?
**A.** Its IC50 is 10300 nM.

**Q.** And the IC50 [25]?
**A.** Its IC50 is 4.2 nM.

**Q.** What about the IC50 [26] of the same compound?
**A.** Its IC50 is 14400 nM.

**Q.** What about the solubility [28] of the same compound?
**A.** The solubility was 3.23 µg/mL (≈ 10.2 µM).

**Q.** What about the viability at 0.003 µM [37] of the same compound?
**A.** Its viability at 0.003 µM is 44.7%.

**Q.** And the IC50 [33]?
**A.** The IC50 was 29 nM.

**Q.** And the IC50 at 24 h [34]?
**A.** Its IC50 at 24 h is 116000 nM.
